PubChem BioAssay (NCI)
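Step 1: Grow cells in 96-well plates. Step 2: Expose to compound for 48 hours at 5 concentrations. Step 3: Interpolate endpoints linearly; if unreached, use highest concentration. TGI marks complete inhibition of growth.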

Columns and labels:
Assay in all cases: NCI tumour cell line growth inhibition, 48 h
SF-268 CNS = tested on: SF-268 CNS
SK-OV-3 ovarian = tested on: SK-OV-3 ovarian
TK-10 renal = tested on: TK-10 renal
NCI/ADR-RES ovarian = tested on: NCI/ADR-RES ovarian
KM12 colon = tested on: KM12 colon
NCI-H23 lung = tested on: NCI-H23 lung
UO-31 renal = tested on: UO-31 renal
SR leukemia = tested on: SR leukemia
CAKI-1 renal = tested on: CAKI-1 renal
RXF 393 renal = tested on: RXF 393 renal
HL-60(TB) leukemia = tested on: HL-60(TB) leukemia
HCT-15 colon = tested on: HCT-15 colon
COLO 205 colon = tested on: COLO 205 colon
LOX IMVI melanoma = tested on: LOX IMVI melanoma
MALME-3M melanoma = tested on: MALME-3M melanoma
M14 melanoma = tested on: M14 melanoma
MOLT-4 leukemia = tested on: MOLT-4 leukemia
OVCAR-5 ovarian = tested on: OVCAR-5 ovarian
OVCAR-3 ovarian = tested on: OVCAR-3 ovarian
HCT-116 colon = tested on: HCT-116 colon
HOP-62 NSCLC = tested on: HOP-62 NSCLC
MDA-MB-231 breast = tested on: MDA-MB-231 breast
UACC-257 melanoma = tested on: UACC-257 melanoma
NCI-H522 lung = tested on: NCI-H522 lung
786-0 renal = tested on: 786-0 renal
U251 CNS = tested on: U251 CNS
HS 578T breast = tested on: HS 578T breast
SF-295 CNS = tested on: SF-295 CNS
SK-MEL-28 melanoma = tested on: SK-MEL-28 melanoma
MDA-MB-435 = tested on: MDA-MB-435
IGROV1 ovarian = tested on: IGROV1 ovarian
MCF7 breast = tested on: MCF7 breast
SNB-75 CNS = tested on: SNB-75 CNS
A549 NSCLC = tested on: A549 NSCLC
OVCAR-8 ovarian = tested on: OVCAR-8 ovarian
CCRF-CEM leukemia = tested on: CCRF-CEM leukemia
SN12C renal = tested on: SN12C renal
EKVX NSCLC = tested on: EKVX NSCLC
K-562 leukemia = tested on: K-562 leukemia
T-47D breast = tested on: T-47D breast
SNB-19 CNS = tested on: SNB-19 CNS
BT-549 breast = tested on: BT-549 breast
RPMI-8226 leukemia = tested on: RPMI-8226 leukemia
DU-145 prostate = tested on: DU-145 prostate
SK-MEL-5 melanoma = tested on: SK-MEL-5 melanoma
OVCAR-4 ovarian = tested on: OVCAR-4 ovarian
MDA-N = tested on: MDA-N
PC-3 prostate = tested on: PC-3 prostate
UACC-62 melanoma = tested on: UACC-62 melanoma
HT29 colon = tested on: HT29 colon
SW-620 colon = tested on: SW-620 colon
SK-MEL-2 melanoma = tested on: SK-MEL-2 melanoma
ACHN renal = tested on: ACHN renal
NCI-H460 lung = tested on: NCI-H460 lung
SF-539 CNS = tested on: SF-539 CNS
HOP-92 NSCLC = tested on: HOP-92 NSCLC
HCC-2998 colon = tested on: HCC-2998 colon

How did the TGI (SF-268 CNS) turn out when CCCCCCC(O)C(=O)OC1C2C(CC1(C)C)C(O)C13OC1C(O)C1(CO1)[C@@]23C (some centres undefined) was run?
Its TGI is 53.6 µM.

What about the TGI (SK-OV-3 ovarian) of the same molecule?
The TGI was > 100 µM.

What about the TGI (TK-10 renal) of the same molecule?
Its TGI is > 100 µM.

And the TGI (NCI/ADR-RES ovarian)?
The TGI was > 100 µM.

What about the TGI (KM12 colon) of the same molecule?
The TGI was > 100 µM.

What about the TGI (NCI-H23 lung) of the same molecule?
Its TGI is > 100 µM.

What about the TGI (UO-31 renal) of the same molecule?
Its TGI is > 100 µM.

And the TGI (SR leukemia)?
The TGI was > 100 µM.

And the TGI (CAKI-1 renal)?
The TGI was > 100 µM.

What about the TGI (RXF 393 renal) of the same molecule?
The TGI was 59.4 µM.

What about the TGI (HL-60(TB) leukemia) of the same molecule?
Its TGI is > 100 µM.

What about the TGI (HCT-15 colon) of the same molecule?
The TGI was > 100 µM.

And the TGI (COLO 205 colon)?
Its TGI is > 100 µM.

What about the TGI (LOX IMVI melanoma) of the same molecule?
Its TGI is > 100 µM.

And the TGI (MALME-3M melanoma)?
The TGI was > 100 µM.

And the TGI (M14 melanoma)?
Its TGI is > 100 µM.

And the TGI (MOLT-4 leukemia)?
Its TGI is > 100 µM.

What about the TGI (OVCAR-5 ovarian) of the same molecule?
Its TGI is > 100 µM.

What about the TGI (OVCAR-3 ovarian) of the same molecule?
Its TGI is > 100 µM.

And the TGI (HCT-116 colon)?
Its TGI is > 100 µM.

What about the TGI (HOP-62 NSCLC) of the same molecule?
The TGI was > 100 µM.

And the TGI (MDA-MB-231 breast)?
Its TGI is > 100 µM.

What about the TGI (UACC-257 melanoma) of the same molecule?
The TGI was > 100 µM.

And the TGI (NCI-H522 lung)?
The TGI was > 100 µM.

And the TGI (786-0 renal)?
Its TGI is 86.8 µM.

And the TGI (U251 CNS)?
Its TGI is > 100 µM.

What about the TGI (HS 578T breast) of the same molecule?
The TGI was 79.3 µM.

And the TGI (SF-295 CNS)?
Its TGI is > 100 µM.

And the TGI (SK-MEL-28 melanoma)?
The TGI was > 100 µM.

What about the TGI (MDA-MB-435) of the same molecule?
The TGI was > 100 µM.

And the TGI (IGROV1 ovarian)?
The TGI was > 100 µM.

And the TGI (MCF7 breast)?
The TGI was > 100 µM.

And the TGI (SNB-75 CNS)?
The TGI was 31.2 µM.

And the TGI (A549 NSCLC)?
The TGI was > 100 µM.

What about the TGI (OVCAR-8 ovarian) of the same molecule?
Its TGI is > 100 µM.

And the TGI (CCRF-CEM leukemia)?
Its TGI is > 100 µM.

What about the TGI (SN12C renal) of the same molecule?
Its TGI is > 100 µM.

What about the TGI (EKVX NSCLC) of the same molecule?
Its TGI is > 100 µM.

What about the TGI (K-562 leukemia) of the same molecule?
Its TGI is > 100 µM.

And the TGI (T-47D breast)?
The TGI was > 100 µM.

What about the TGI (SNB-19 CNS) of the same molecule?
Its TGI is > 100 µM.

And the TGI (BT-549 breast)?
Its TGI is > 100 µM.

What about the TGI (RPMI-8226 leukemia) of the same molecule?
The TGI was > 100 µM.

What about the TGI (DU-145 prostate) of the same molecule?
Its TGI is > 100 µM.

And the TGI (SK-MEL-5 melanoma)?
Its TGI is 40.9 µM.

What about the TGI (OVCAR-4 ovarian) of the same molecule?
Its TGI is > 100 µM.

What about the TGI (MDA-N) of the same molecule?
The TGI was > 100 µM.

And the TGI (PC-3 prostate)?
Its TGI is > 100 µM.

What about the TGI (UACC-62 melanoma) of the same molecule?
The TGI was > 100 µM.

What does the source list for CCN(CC)CCC(=O)Nc1ccc2sc3ccccc3c(=O)c2n1?
TGI (SF-268 CNS): 48.5 µM; TGI (HT29 colon): > 100 µM; TGI (SK-OV-3 ovarian): 36.7 µM; TGI (TK-10 renal): 57.5 µM; TGI (SW-620 colon): 33.9 µM; TGI (NCI/ADR-RES ovarian): 72 µM; TGI (KM12 colon): 32.1 µM; TGI (NCI-H23 lung): 43.8 µM; TGI (UO-31 renal): 22.2 µM; TGI (SK-MEL-2 melanoma): 45.8 µM; TGI (SR leukemia): > 100 µM; TGI (CAKI-1 renal): 28.8 µM; TGI (HL-60(TB) leukemia): 30.9 µM; TGI (HCT-15 colon): 62.3 µM; TGI (COLO 205 colon): 29.1 µM; TGI (LOX IMVI melanoma): 38.9 µM; TGI (ACHN renal): 38.1 µM; TGI (MALME-3M melanoma): 39.1 µM; TGI (NCI-H460 lung): 61.6 µM; TGI (M14 melanoma): 28.1 µM; TGI (SF-539 CNS): 33.4 µM; TGI (MOLT-4 leukemia): > 100 µM; TGI (OVCAR-5 ovarian): 42.5 µM; TGI (OVCAR-3 ovarian): 43.2 µM; TGI (HCT-116 colon): 29.4 µM; TGI (HOP-62 NSCLC): 37.8 µM; TGI (UACC-257 melanoma): 37.5 µM; TGI (NCI-H522 lung): 30.4 µM; TGI (786-0 renal): 35.1 µM; TGI (U251 CNS): 28.8 µM; TGI (HS 578T breast): 46.1 µM; TGI (SF-295 CNS): 48.9 µM; TGI (SK-MEL-28 melanoma): 33.6 µM; TGI (MDA-MB-435): 26.4 µM; TGI (IGROV1 ovarian): 35.8 µM; TGI (MCF7 breast): 36.5 µM; TGI (SNB-75 CNS): 21.6 µM; TGI (A549 NSCLC): 37 µM; TGI (OVCAR-8 ovarian): 62.4 µM; TGI (CCRF-CEM leukemia): 75.6 µM; TGI (SN12C renal): 77.8 µM; TGI (HOP-92 NSCLC): 0.0992 µM; TGI (EKVX NSCLC): > 100 µM; TGI (K-562 leukemia): 41.4 µM; TGI (T-47D breast): 45.9 µM; TGI (HCC-2998 colon): 42.7 µM; TGI (SNB-19 CNS): 53.1 µM; TGI (BT-549 breast): 36.1 µM; TGI (RPMI-8226 leukemia): 43.5 µM; TGI (DU-145 prostate): > 100 µM; TGI (SK-MEL-5 melanoma): 33.8 µM; TGI (OVCAR-4 ovarian): > 100 µM; TGI (MDA-N): 30.3 µM; TGI (PC-3 prostate): 40.9 µM; TGI (UACC-62 melanoma): 35 µM
